Among the data in US10172814B2, “Substituted pyridyl-cycloalkyl-carboxylic acids, compositions containing them and medical uses thereof” (BAYER PHARMA AKTIENGESELLSCHAFT, priority 2014, dated 2019) are IC50 values, retold here.

For orientation: IC50 means the concentration at which inhibition is half-maximal.

Sequence of human PTGES (O14684 whole entry): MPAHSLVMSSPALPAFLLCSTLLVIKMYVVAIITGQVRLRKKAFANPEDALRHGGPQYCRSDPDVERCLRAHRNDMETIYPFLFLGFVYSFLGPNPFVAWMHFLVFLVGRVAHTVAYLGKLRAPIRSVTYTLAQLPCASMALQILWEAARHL

The test has as its target human PTGES (Homo sapiens (Human), UniProt O14684). Put plainly: Human PTGES biochemical enzyme inhibition assay (conversion of PGH2 to PGE2, TR-FRET). The settings on record: Enzymatic conversion of PGH2 to PGE2; read-out: Human PTGES IC50. The method, boiled down: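 FLAG-tagged human PTGES from Hi-5 insect cells preincubated 15–20 min with compound in pH 7.2 phosphate buffer with 2.5 mM reduced glutathione; reaction started with 8 nM PGH2 final, stopped with SnCl2/KF.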
For orientation: In TR-FRET formats the signal depends on donor and acceptor labels being close together.
In the case of `Cc1c(NC(=O)C(c2ccc(-c3cncc(C(F)(F)F)c3)c(F)c2)C2CCCC2)cccc1C(C)CC(=O)O` (single isomer, unassigned; stereoisomer 4) [Example 119, 3-{3-[(Cyclopentyl{3-fluoro-4-[5-(trifluoromethyl)pyridin-3-yl]phenyl}acetyl)amino]-2-methylphenyl}butanoic acid, Stereoisomer 4], the IC50 stood at 1060 nM.

With `Cc1ncc(-c2ccc(C(C(=O)Nc3cccc(C(C)CC(=O)O)c3C)C3CCCC3)cc2F)cc1Cl` (single isomer, unassigned; stereoisomer 4) [Example 124, 3-[3-({[4-(5-Chloro-6-methylpyridin-3-yl)-3-fluorophenyl](cyclopentyl)acetyl}amino)-2-methylphenyl]butanoic acid, Stereoisomer 4], the half-maximal inhibitory concentration (IC50) was found to be 5.06 nM.

`Cc1c(NC(=O)C(c2ccc(-c3cncc(Cl)c3)c(F)c2)C2CCCC2)cccc1C(C)CC(=O)O` (single isomer, unassigned; stereoisomer 4) [Example 129, 3-[3-({[4-(5-Chloropyridin-3-yl)-3-fluorophenyl](cyclopentyl)acetyl}amino)-2-methylphenyl]butanoic acid, Stereoisomer 4]: the IC50 is 5.6 nM.

In the case of `Cc1c(NC(=O)C(c2ccc(-c3cncc(Cl)c3)cc2)C2CCC2)cccc1C(C)CC(=O)O` (single isomer, unassigned; stereoisomer 4) [Example 139], the IC50 worked out at 107 nM.

As to `Cc1c(NC(=O)C(c2ccc(-c3cncc(Cl)c3)c(F)c2)C2CCC2)cccc1C(C)CC(=O)O` (single isomer, unassigned; stereoisomer 4) [Example 153, 3-[3-({[4-(5-Chloropyridin-3-yl)-3-fluorophenyl](cyclobutyl)acetyl}amino)-2-methylphenyl]butanoic acid, Stereoisomer 4], the IC50 was 11.7 nM.

For the compound `Cc1cc(-c2ccc(C(C(=O)Nc3cccc(CC(C)C(=O)O)c3C)C3CCCC3)cc2)cnc1C` (stereo not drawn) [Example 78, (2R/2S)-3-[3-({(2R/2S)-2-Cyclopentyl-2-[4-(5,6-dimethylpyridin-3-yl)phenyl]acetyl}amino)-2-methylphenyl]-2-methylpropanoic acid], the concentration for half-maximal inhibition (IC50) came out at 118 nM.

In the case of `Cc1ccc(-c2ccc(C(C(=O)Nc3cccc(CC(C)C(=O)O)c3C)C3CCCC3)cc2)cn1` (stereo not drawn) [Example 79, (2R/2S)-3-[3-({(2R/2S)-2-Cyclopentyl-2-[4-(6-methylpyridin-3-yl)phenyl]acetyl}amino)-2-methylphenyl]-2-methylpropanoic acid], the concentration for half-maximal inhibition (IC50) was 433 nM.

Regarding `Cc1c(CC(C)C(=O)O)cccc1NC(=O)C(c1ccc(-c2cncc(OC(F)F)c2)cc1)C1CCCC1` (stereo not drawn) [Example 80, (2R/2S)-3-(3-{[(2R/2S)-2-Cyclopentyl-2-{4-[5-(difluoromethoxy)pyridin-3-yl]phenyl}acetyl]amino}-2-methylphenyl)-2-methylpropanoic acid], the concentration for half-maximal inhibition (IC50) is 88.5 nM.

For the compound `Cc1cncc(-c2ccc(C(C(=O)Nc3cccc(CC(C)C(=O)O)c3C)C3CCCC3)cc2)c1` (stereo not drawn) [Example 81, (2R/2S)-3-[3-({(2R/2S)-2-Cyclopentyl-2-[4-(5-methylpyridin-3-yl)phenyl]acetyl}amino)-2-methylphenyl]-2-methylpropanoic acid], the IC50 was determined as 172 nM.

For `Cc1ncc(-c2ccc(C(C(=O)Nc3cccc(CC(C)C(=O)O)c3C)C3CCCC3)cc2)cc1F` (stereo not drawn) [Example 82, (2R/2S)-3-[3-({(2R/2S)-2-Cyclopentyl-2-[4-(5-fluoro-6-methylpyridin-3-yl)phenyl]acetyl}amino)-2-methylphenyl]-2-methylpropanoic acid], the IC50 was determined as 90.6 nM.

Regarding `Cc1c(NC(=O)C(c2ccc(-c3cncc(Cl)c3)c(F)c2)C2CCC2)cccc1C(C)CC(=O)O` (stereo not drawn) [Example 149], the 50% inhibitory concentration (IC50) stood at 52.1 nM.

As for `Cc1ncc(-c2ccc(C(C(=O)Nc3cccc(C4CC4C(=O)O)c3C)C3CCCC3)cc2)cc1Cl` (stereo not drawn) [Example 154, 2-[3-({2-[4-(5-chloro-6-methylpyridin-3-yl)phenyl]-2-cyclopentylacetyl}amino)-2-methylphenyl]cyclopropanecarboxylic acid], the IC50 came to 42.8 nM.

With `CCOc1cncc(-c2ccc(C(C(=O)Nc3cccc(C4CC4C(=O)O)c3C)C3CCCC3)cc2)c1` (stereo not drawn) [Example 155, 2-[3-({2-cyclopentyl-2-[4-(5-ethoxypyridin-3-yl)phenyl]acetyl}amino)-2-methylphenyl]cyclopropanecarboxylic acid], the IC50 was 158 nM.

As for `Cc1c(NC(=O)C(c2ccc(-c3cncc(C(F)(F)F)c3)cc2)C2CCCC2)cccc1C1CC1C(=O)O` (stereo not drawn) [Example 156, 2-(3-{[2-cyclopentyl-2-{4-[5-(trifluoromethyl)pyridin-3-yl]phenyl}acetyl]amino}-2-methylphenyl)cyclopropanecarboxylic acid], the IC50 was found to be 32.9 nM.

`Cc1ncc(-c2ccc([C@H](C(=O)Nc3ccc(F)c(CCC(=O)O)c3C)C3CCCC3)cc2)cc1Cl` [Example 184, 3-[3-({(2R)-2-[4-(5-chloro-6-methylpyridin-3-yl)phenyl]-2-cyclopentylacetyl}amino)-6-fluoro-2-methylphenyl]propanoic acid]: the IC50 was 23.7 nM.

As for `Cc1ncc(-c2ccc([C@H](C(=O)Nc3cccc(N(C)CC(=O)O)c3C)C3CCCC3)cc2)cc1Cl` [Example 187, N-[3-({(2R)-2-[4-(5-chloro-6-methylpyridin-3-yl)phenyl]-2-cyclopentylacetyl}amino)-2-methylphenyl]-N-methylglycine], the half-inhibitory concentration (IC50) was 23.9 nM.

For `Cc1c(CCC(=O)O)cccc1NC(=O)[C@@H](c1ccc(-c2cncc(OC(C)C)c2)cc1)C1CCCC1` [Example 190, 3-(3-{[(2R)-2-cyclopentyl-2-{4-[5-(propan-2-yloxy)pyridin-3-yl]phenyl}acetyl]amino}-2-methylphenyl)propanoic acid], the 50% inhibitory concentration (IC50) was determined as 36.1 nM.

On to `Cc1c(CCC(=O)O)cccc1NC(=O)[C@@H](c1ccc(-c2cncc(CC(F)(F)F)c2)cc1)C1CCCC1` [Example 191, 3-(3-{[(2R)-2-cyclopentyl-2-{4-[5-(2,2,2-trifluoroethyl)pyridin-3-yl]phenyl}acetyl]amino}-2-methylphenyl)propanoic acid], for which the IC50 is 60.1 nM.

As for `Cc1ncc(-c2ccc([C@H](C(=O)Nc3cccc(CCC(=O)O)c3C)C3CCCC3)cc2)cc1C(F)(F)F` [Example 192, 3-(3-{[(2R)-2-cyclopentyl-2-{4-[6-methyl-5-(trifluoromethyl)pyridin-3-yl]phenyl}acetyl]amino}-2-methylphenyl)propanoic acid], the half-inhibitory concentration (IC50) stood at 13.5 nM.

As for `Cc1c(NC(=O)[C@@H](c2ccc(-c3cncc(Cl)c3)cc2)C2CCCC2)cccc1C(O)CC(=O)O` (stereo partly drawn) [Example 193, 3-[3-({(2R)-2-[4-(5-chloropyridin-3-yl)phenyl]-2-cyclopentylacetyl}amino)-2-methylphenyl]-3-hydroxypropanoic acid], the 50% inhibitory concentration (IC50) worked out at 232 nM.

Regarding `COc1c(CCC(=O)O)cccc1NC(=O)C(c1ccc(-c2cncc(C(F)(F)F)c2)cc1)C1CCCC1` (stereo not drawn) [Example 213, 3-{3-[(cyclopentyl{4-[5-(trifluoromethyl)pyridin-3-yl]phenyl}acetyl)amino]-2-methoxyphenyl}propanoic acid], the IC50 is 328 nM.
